Laboratory results taken from patent US20260234135A1, “CRYSTALLINE FORMS OR SALTS OF A DEUTERATED COMPOUND” (ALEBUND PHARMACEUTICALS (HONG KONG) LIMITED, priority 2023, published 2026).
≈ marks a conversion by molar mass, not a printed value. Where two headings read alike, the source gives them in different places.

How the values were obtained:
[1] = Approximate solubility in single solvents at RT; type: physicochemical
Procedure: Approximately 2 mg of sample was added into a 3-mL glass vial. Corresponding solvents were added stepwise (50 μL→50 μL→100 μL→200 μL→600 μL→1000 μL) into the vials until the solids were dissolved visually or a total volume of 2 mL was reached. The ranges of approximate solubility were calculated according to the mass of sample, volume of solvent and observation. Result summarized in Table 3 was used to guide the solvent selection in polymorph screening.

[2] = Hygroscopicity evaluation by DVS at 25° C.; type: physicochemical
Procedure: DVS was measured via a SMS (Surface Measurement Systems) DVS Intrinsic. The relative humidity at 25° C. were calibrated against deliquescence point of LiCl, Mg(NO3)2 and KCl.

[3] = for HPLC Purity (area %), main peak RRT 1.00 / HPLC Reults of initial (%): listed as Free acid Form B
[4] = physchem; conditions: thermodynamic from solid
[5] = SGF, 37 °C, simulated gastric fluid
[6] = pH 4.5 (KAc) buffer, 37 °C, pH 4.5, aqueous buffer
[7] = pH 6.8 buffer (K2HPO3 + KH2PO3), 37 °C, pH 6.8, aqueous buffer
[8] = pH 8.0 buffer (K2HPO3 + KH2PO3), 37 °C, pH 8, aqueous buffer

[2H]C([2H])(Cc1nc(-c2ccccc2)oc1C)Oc1ccc(C[C@H](OC)C(=O)O)c2sccc12 [AP-303 (818159-01-A)]
Solubility ([1]; 1,4-Dioxane): S > 46.0 mg/mL | Solubility ([1]; DMSO): S > 44.0 mg/mL | Solubility ([1]; H2O): S < 1.2 mg/mL | Solubility ([1]; THF): S > 42.0 mg/mL | Solubility ([1]; n-Heptane): S < 1.3 mg/mL

[2H]C([2H])(Cc1nc(-c2ccccc2)oc1C)Oc1ccc(C[C@H](OC)C(=O)O)c2sccc12 [free acid Form B]
Hygroscopicity ([2]; DVS, 25° C.): non-hygroscopic | Water uptake up to 80% RH ([2]; DVS, 25° C.): 0.07% | Form change after DVS test ([2]; XRPD after DVS): No form change | Area (%) peak 1, RRT 0.88 ([3]; 40° C./75% RH, 2 weeks): 0.20% | Area (%) peak 2, RRT 1.00 (main peak) ([3]; 40° C./75% RH, 2 weeks): 99.50% | Area (%) peak 3, RRT 1.14 ([3]; 40° C./75% RH, 2 weeks): 0.11% | Area (%) peak 4, RRT 1.34 ([3]; 40° C./75% RH, 2 weeks): 0.20% | Area (%) peak 1, RRT 0.88 ([3]; 40° C./75% RH, 4 weeks): 0.23% | Area (%) peak 2, RRT 1.00 (main peak) ([3]; 40° C./75% RH, 4 weeks): 99.47% | Area (%) peak 3, RRT 1.14 ([3]; 40° C./75% RH, 4 weeks): 0.11% | Area (%) peak 4, RRT 1.34 ([3]; 40° C./75% RH, 4 weeks): 0.19% | Area (%) peak 1, RRT 0.88 ([3]; 40° C./75% RH, 8 weeks): 0.20% | Area (%) peak 2, RRT 1.00 (main peak) ([3]; 40° C./75% RH, 8 weeks): 99.52% | Area (%) peak 3, RRT 1.14 ([3]; 40° C./75% RH, 8 weeks): 0.09% | Area (%) peak 4, RRT 1.34 ([3]; 40° C./75% RH, 8 weeks): 0.19% | HPLC Purity (area %), main peak RRT 1.00 ([3]; 40° C./75% RH/open, 2 weeks): 99.50 area % | HPLC Purity (area %), main peak RRT 1.00 ([3]; 40° C./75% RH/open, 4 weeks): 99.47 area % | HPLC Reults of initial (%) ([3]; 40° C./75% RH/open, 4 weeks): 100.00% | HPLC Purity (area %), main peak RRT 1.00 ([3]; 40° C./75% RH/open, 8 weeks): 99.52 area % | HPLC Reults of initial (%) ([3]; 40° C./75% RH/open, 8 weeks): 100.05% | Area (%) peak 1, RRT 0.88 ([3]; 60° C., 2 weeks): 0.20% | Area (%) peak 2, RRT 1.00 (main peak) ([3]; 60° C., 2 weeks): 99.49% | Area (%) peak 3, RRT 1.14 ([3]; 60° C., 2 weeks): 0.11% | Area (%) peak 4, RRT 1.34 ([3]; 60° C., 2 weeks): 0.20% | Area (%) peak 1, RRT 0.88 ([3]; 60° C., 4 weeks): 0.22% | Area (%) peak 2, RRT 1.00 (main peak) ([3]; 60° C., 4 weeks): 99.47% | Area (%) peak 3, RRT 1.14 ([3]; 60° C., 4 weeks): 0.11% | Area (%) peak 4, RRT 1.34 ([3]; 60° C., 4 weeks): 0.20% | Area (%) peak 1, RRT 0.88 ([3]; 60° C., 8 weeks): 0.20% | Area (%) peak 2, RRT 1.00 (main peak) ([3]; 60° C., 8 weeks): 99.51% | Area (%) peak 3, RRT 1.14 ([3]; 60° C., 8 weeks): 0.10% | Area (%) peak 4, RRT 1.34 ([3]; 60° C., 8 weeks): 0.20% | HPLC Purity (area %), main peak RRT 1.00 ([3]; 60° C./close, 2 weeks): 99.49 area % | HPLC Purity (area %), main peak RRT 1.00 ([3]; 60° C./close, 4 weeks): 99.47 area % | HPLC Reults of initial (%) ([3]; 60° C./close, 4 weeks): 100.00% | HPLC Purity (area %), main peak RRT 1.00 ([3]; 60° C./close, 8 weeks): 99.51 area % | HPLC Reults of initial (%) ([3]; 60° C./close, 8 weeks): 100.04% | Area (%) peak 1, RRT 0.88 ([3]; Initial): 0.23% | Area (%) peak 2, RRT 1.00 (main peak) ([3]; Initial): 99.47% | Area (%) peak 3, RRT 1.14 ([3]; Initial): 0.10% | Area (%) peak 4, RRT 1.34 ([3]; Initial): 0.20% | HPLC Purity (area %), main peak RRT 1.00 ([3]; Initial): 99.47 area % | solubility at 2 h ([4]; FaSSIF-V2, 37 °C, fassif): 280 µg/mL (≈ 637 µM) | solubility at 24 h ([4]; FaSSIF-V2, 37 °C, fassif): 290 µg/mL (≈ 660 µM) | solubility at 2 h ([4]; FeSSIF-V2, 37 °C, fessif): 630 µg/mL (≈ 1430 µM) | solubility at 24 h ([4]; FeSSIF-V2, 37 °C, fessif): 650 µg/mL (≈ 1480 µM) | solubility at 2 h [4, 5]: 11 µg/mL (≈ 25 µM) | solubility at 24 h [4, 5]: 9.6 µg/mL (≈ 21.8 µM) | solubility at 2 h [4, 6]: 0.3 µg/mL (≈ 0.683 µM) | solubility at 24 h [4, 6]: 0.4 µg/mL (≈ 0.91 µM) | solubility at 2 h [4, 7]: 150 µg/mL | solubility at 24 h [4, 7]: 170 µg/mL | solubility at 2 h [4, 8]: 1900 µg/mL | solubility at 24 h [4, 8]: 1900 µg/mL | solubility at 2 h ([4]; water, 37 °C): 36 µg/mL (≈ 81.9 µM)
